Results reported in patent EP4417602A1, “SUBSTITUTED PYRAZOLE CARBOXAMIDES, SALTS THEREOF AND THEIR USE AS HERBICIDALLY ACTIVE SUBSTANCES” (Bayer AG, priority 2023, dated 2024).

How the values were obtained:
ZEAMX = experiment: F. Post-emergence effects on crop plants (Tables F); format: in vivo, Zea mays; conditions: application rate 80 g/ha, crop plant
Text: (§1) Seeds of mono- and dicotyledonous weed plants and crop plants were sown, in plastic or organic planting pots, in sandy loam, covered with soil and grown in a greenhouse under controlled growth conditions. 2 to 3 weeks after sowing, the test plants were sprayed in the single-leaf stage. The compounds according to the invention, formulated in form of wettable powders (WP) or as emulsifiable concentrates (EC), were sprayed onto the green plant parts as aqueous suspension or emulsion, with the addition of 0.5% of an additive, at an application rate of 6001 of water/ha (converted). The test plants were placed in the greenhouse for ca. 3 weeks under optimum growth conditions, and then the effect of the preparations was assessed visually in comparison with untreated controls (herbicidal effect in percent (%): 100% effect = plants have died off, 0% effect = as control plants). Tables F1 to F5 below show the effects of selected compounds of the general formula (I) according to table 1 on various crop plants and an application rate corresponding to 320 g/ha or below obtained by the experimental procedure mentioned above. Table […]: post-emergence activity at 320g/ha against ZEAMX in %

GLXMA [1] = experiment: as above; format: in vivo, Glycine max; conditions: application rate 320 g/ha, crop plant
Text: as §1

VIOTR = experiment: C. Herbicidal pre-emergence action, weed and crop plants (Tables C); format: in vivo, Viola tricolor; conditions: application rate 320 g/ha; Table C12a
Text: (§2) Seeds of mono- and dicotyledonous weed plants and crop plants were sown, in plastic or organic planting pots, in sandy loam and covered with soil. The compounds according to the invention, formulated in the form of wettable powders (WP) or as emulsifiable concentrates (EC), were applied to the surface of the covering soil as aqueous suspension or emulsion, with the addition of 0.5% of an additive, at an application rate of 6001 of water/ha (converted). Following treatment, the pots were placed in a greenhouse and kept under optimum growth conditions for the test plants. The visual grading of the damage to the test plants was carried out after ca. 3 weeks in comparison to untreated controls (herbicidal effect in percent (%): 100% effect = plants have died off, 0% effect = as control plants). Tables C1 to C12 below show the effects of selected compounds of the general formula (I) according to table 1 on various harmful plants and an application rate corresponding to 320 g/ha or below obtained by the experimental procedure mentioned above. Table C1: pre-emergence activity at 320g/ha against KCHSC in %

ORYZA [2] = experiment: D. Pre-emergence effects on crop plants (Tables D); format: in vivo, Oryza sativa; conditions: crop plant; application rate 80 g/ha; Table D3b
Text: (§3) Seeds of mono- and dicotyledonous weed plants and crop plants were sown, in plastic or organic planting pots, in sandy loam and covered with soil. The compounds according to the invention, formulated in the form of wettable powders (WP) or as emulsifiable concentrates (EC), were applied to the surface of the covering soil as aqueous suspension or emulsion, with the addition of 0.5% of an additive, at an application rate of 6001 of water/ha (converted).
(§4) Following treatment, the pots were placed in a greenhouse and kept under optimum growth conditions for the test plants. The visual grading of the damage to the test plants was carried out after ca. 3 weeks in comparison to untreated controls (herbicidal effect in percent (%): 100% effect = plants have died off, 0% effect = as control plants).
(§5) Tables D1 to D5 below show the effects of various compounds of the general formula (I) according to Table 1 on various crop plants and an application rate corresponding to 320 g/ha or below obtained by the experimental procedure mentioned above in Biological Examples, Section C. Table D1a: pre-emergence activity at 320g/ha against ZEAMX in %

POAAN [3] = experiment: A. Herbicidal pre-emergence action on harmful plants (Tables A); format: in vivo, Poa annua
Outline: (§6)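 Greenhouse pre-emergence test: compound applied to the soil surface at 1280 g/ha or below, and herbicidal effect rated visually at ca. 3 weeks on a 0–100% scale against untreated plants.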

SETVI = experiment: as above; format: in vivo, Setaria viridis; conditions: visual grading after ca. 3 weeks vs untreated controls, 100% = plants have died off, 0% = as control plants
Outline: as §6

ORYZA [4] = experiment: F. Post-emergence effects on crop plants (Tables F); format: in vivo, Oryza sativa; conditions: application rate 80 g/ha, crop plant
Text: as §1

ECHCG [5] = experiment: C. Herbicidal pre-emergence action, weed and crop plants (Tables C); format: in vivo, Echinochloa crus-galli; conditions: application rate 320 g/ha; Table C6a
Text: as §2

BRSNW [6] = experiment: F. Post-emergence effects on crop plants (Tables F); format: in vivo, Brassica napus; conditions: application rate 80 g/ha, crop plant
Text: as §1

TRZAS = experiment: as above; format: in vivo, Triticum aestivum; conditions: application rate 80 g/ha, crop plant
Text: as §1

LOLRI [7] = experiment: C. Herbicidal pre-emergence action, weed and crop plants (Tables C); format: in vivo, Lolium rigidum; conditions: application rate 320 g/ha; Table C7a
Text: as §2

GLXMA [8] = experiment: D. Pre-emergence effects on crop plants (Tables D); format: in vivo, Glycine max; conditions: crop plant
Text: as §3, §4, §5

DIGSA [9] = experiment: C. Herbicidal pre-emergence action, weed and crop plants (Tables C); format: in vivo, Digitaria sanguinalis
Text: as §2

MATIN = experiment: A. Herbicidal pre-emergence action on harmful plants (Tables A); format: in vivo, Matricaria inodora; conditions: visual grading after ca. 3 weeks vs untreated controls, 100% = plants have died off, 0% = as control plants
Outline: as §6

STEME = experiment: as above; format: in vivo, Stellaria media; conditions: visual grading after ca. 3 weeks vs untreated controls, 100% = plants have died off, 0% = as control plants
Outline: as §6

ECHCG [10] = experiment: as above; format: in vivo, Echinochloa crus-galli; conditions: visual grading after ca. 3 weeks vs untreated controls, 100% = plants have died off, 0% = as control plants
Outline: as §6

LOLRI [11] = experiment: as above; format: in vivo, Lolium rigidum; conditions: visual grading after ca. 3 weeks vs untreated controls, 100% = plants have died off, 0% = as control plants
Outline: as §6

BRSNW [12] = experiment: D. Pre-emergence effects on crop plants (Tables D); format: in vivo, Brassica napus; conditions: application rate 80 g/ha, crop plant
Text: as §3, §4, §5

ALOMY = experiment: A. Herbicidal pre-emergence action on harmful plants (Tables A); format: in vivo, Alopecurus myosuroides
Outline: as §6

ECHCG [13] = experiment: B. Herbicidal post-emergence action on harmful plants (Tables B); format: in vivo, Echinochloa crus-galli; conditions: application rate 1280 g/ha; Table B2a
Outline: (§7)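 Activity was scored visually as % damage (100% = dead, 0% = like untreated) about 3 weeks after treatment. Plants at the one-leaf stage, 2-3 weeks old, were sprayed with WP/EC formulations plus 0.5% additive (600 L/ha water, up to 1280 g/ha). Plants were grown in sandy loam in a greenhouse.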

AMARE = experiment: A. Herbicidal pre-emergence action on harmful plants (Tables A); format: in vivo, Amaranthus retroflexus
Outline: as §6

VERPE = experiment: as above; format: in vivo, Veronica persica; conditions: application rate 1280 g/ha; Table A11
Text: (§8) Seeds of mono- and dicotyledonous weed plants were sown in plastic pots (double sowings with one species of mono- and one species of dicotyledonous weed plants per pot), in sandy loam, and covered with soil. The compounds according to the invention, formulated in the form of wettable powders (WP) or as emulsifiable concentrates (EC), were applied to the surface of the covering soil as aqueous suspension or emulsion, with the addition of 0.5% of an additive, at an application rate of 6001 of water per hectare (converted). Following treatment, the pots were placed in a greenhouse and kept under optimum growth conditions for the test plants. The visual grading of the damage to the test plants was carried out after ca. 3 weeks in comparison to untreated controls (herbicidal effect in percent (%): 100% effect = plants have died off, 0% effect = as control plants). Tables A1 to A12, below, show the effects of selected compounds of the general formula (I) according to table 1 on various harmful plants and an application rate corresponding to 1280 g/ha or below obtained by the experimental procedure mentioned above. Table A1: pre-emergence activity at 1280g/ha against ABUTH in %

POAAN [14] = experiment: B. Herbicidal post-emergence action on harmful plants (Tables B); format: in vivo, Poa annua
Outline: as §7

ABUTH = experiment: A. Herbicidal pre-emergence action on harmful plants (Tables A); format: in vivo, Abutilon theophrasti; conditions: application rate 1280 g/ha; visual grading after ca. 3 weeks vs untreated controls; 100% = plants have died off, 0% = as control plants
Text: as §8

DIGSA [15] = experiment: as above; format: in vivo, Digitaria sanguinalis
Outline: as §6

[16] = application rate 80 g/ha, Table A7c
[17] = application rate 320 g/ha, Table A7b
[18] = application rate 1280 g/ha, visual grading after ca. 3 weeks vs untreated controls, 100% = plants have died off, 0% = as control plants

COCc1nn(C)cc1C(=O)N1CCCC1Cc1cc(F)ccc1F (racemic) [Example I-001]
20%: post-emergence activity against GLXMA in % (GLXMA [1]) | pre-emergence activity against ORYZA (ORYZA [2]) | pre-emergence activity against GLXMA (GLXMA [8]; application rate 320 g/ha, Table D4a)
100%: pre-emergence activity against POAAN (POAAN [3]; [16]) | pre-emergence activity against POAAN (POAAN [3]; [17]) | pre-emergence activity against POAAN (POAAN [3]; [18]) | pre-emergence activity against SETVI (SETVI; application rate 1280 g/ha) | pre-emergence activity against DIGSA (DIGSA [9]; application rate 320 g/ha, Table C5a) | pre-emergence activity against ECHCG (ECHCG [10]; application rate 320 g/ha) | pre-emergence activity against ECHCG (ECHCG [10]; application rate 1280 g/ha) | pre-emergence activity against LOLRI (LOLRI [11]; application rate 1280 g/ha)
10%: post-emergence activity against BRSNW in % (BRSNW [6]) | post-emergence activity against TRZAS in % (TRZAS)
0%: post-emergence activity against ZEAMX in % (ZEAMX) | post-emergence activity against ORYZA in % (ORYZA [4]) | pre-emergence activity against GLXMA (GLXMA [8]; application rate 80 g/ha, Table D4b) | pre-emergence activity against BRSNW in % (BRSNW [12])
90%: pre-emergence activity against SETVI (SETVI; application rate 320 g/ha) | pre-emergence activity against ECHCG (ECHCG [5]) | pre-emergence activity against DIGSA (DIGSA [9]; application rate 80 g/ha, Table C5b) | pre-emergence activity against MATIN (MATIN; application rate 1280 g/ha) | pre-emergence activity against STEME (STEME; application rate 320 g/ha) | pre-emergence activity against STEME (STEME; application rate 1280 g/ha)
80%: pre-emergence activity against VIOTR (VIOTR) | pre-emergence activity against LOLRI (LOLRI [7])

COCc1nn(C)cc1C(=O)N1CCCC1Cc1cc(F)ccc1F (single isomer, unassigned) [Example I-071]
90%: pre-emergence activity against SETVI (SETVI; application rate 80 g/ha) | pre-emergence activity against SETVI (SETVI; application rate 320 g/ha) | pre-emergence activity against SETVI (SETVI; application rate 1280 g/ha) | pre-emergence activity against ALOMY (ALOMY; application rate 320 g/ha, Table A9b) | pre-emergence activity against ALOMY (ALOMY; application rate 1280 g/ha, Table A9a) | pre-emergence activity against MATIN (MATIN; application rate 320 g/ha) | pre-emergence activity against MATIN (MATIN; application rate 1280 g/ha) | pre-emergence activity against STEME (STEME; application rate 320 g/ha) | pre-emergence activity against STEME (STEME; application rate 1280 g/ha) | post-emergence activity against ECHCG (ECHCG [13]) | pre-emergence activity against ECHCG (ECHCG [10]; application rate 80 g/ha) | pre-emergence activity against AMARE (AMARE; application rate 320 g/ha, Table A8b) | pre-emergence activity against AMARE (AMARE; [18]) | pre-emergence activity against LOLRI (LOLRI [11]; application rate 80 g/ha) | pre-emergence activity against VERPE (VERPE) | post-emergence activity against POAAN (POAAN [14]; application rate 320 g/ha, Table B7b) | post-emergence activity against POAAN (POAAN [14]; application rate 1280 g/ha, Table B7a) | pre-emergence activity against ABUTH (ABUTH) | pre-emergence activity against DIGSA (DIGSA [15]; application rate 80 g/ha, Table A12c)
100%: pre-emergence activity against POAAN (POAAN [3]; [16]) | pre-emergence activity against POAAN (POAAN [3]; [17]) | pre-emergence activity against POAAN (POAAN [3]; [18]) | pre-emergence activity against ECHCG (ECHCG [10]; application rate 320 g/ha) | pre-emergence activity against ECHCG (ECHCG [10]; application rate 1280 g/ha) | pre-emergence activity against LOLRI (LOLRI [11]; application rate 320 g/ha) | pre-emergence activity against LOLRI (LOLRI [11]; application rate 1280 g/ha) | pre-emergence activity against DIGSA (DIGSA [15]; application rate 320 g/ha, Table A12b) | pre-emergence activity against DIGSA (DIGSA [15]; application rate 1280 g/ha, Table A12a)
